Source: patent US9326513B2, “Fungicidal compositions” (Syngenta Participations AG, priority 2011, dated 2016)
Like-named read-outs stand apart in the source and are kept apart here.

Legend:
Format in all cases: cell-based
[1] = tested on: Monographella nivalis (syn. Microdochium nivale, Fusarium nivale); assay: Monographella nivalis (snow mould, foot rot of cereals), PDB microtiter plate, visual after 72 hrs
Septoria tritici = Septoria tritici (leaf blotch), PDB microtiter plate, visual after 72 hrs; settings: single compound
Botrytis cinerea = Botrytis cinerea (gray mould), PDB microtiter plate, visual after 72 hrs
[2] = Monographella nivalis, applied alone, rate 0.3125 ppm
[3] = Monographella nivalis, applied alone, rate 0.625 ppm
[4] = Monographella nivalis, applied alone, rate 2.5 ppm
[5] = applied alone, rate 0.15625 ppm

## CC1(C)CCC(Cc2ccc(Cl)cc2)C1(O)Cn1cncn1 (centres unmarked) [Metconazole]
[1]; Monographella nivalis, applied alone, 0.0625 ppm
  inhibition at 0.0625 ppm: 0%
[1]; Monographella nivalis, applied alone, 0.125 ppm
  inhibition at 0.125 ppm: 0%
[1]; Monographella nivalis, applied alone, 0.25 ppm
  inhibition at 0.25 ppm: 0%
[1]; Monographella nivalis, applied alone, 0.5 ppm
  inhibition at 0.5 ppm: 0%
[1]; Monographella nivalis, applied alone, 1 ppm
  inhibition at 1 ppm: 20%
[1]; Monographella nivalis, applied alone, rate 0.015625 ppm
  inhibition at 0.015625 ppm: 0%
[1]; Monographella nivalis, applied alone, rate 0.03125 ppm
  inhibition at 0.03125 ppm: 0%
[1]; Monographella nivalis, applied alone, rate 0.0625 ppm
  inhibition at 0.0625 ppm: 0%
[1]; Monographella nivalis, applied alone, rate 0.125 ppm
  inhibition at 0.125 ppm: 0%
[1]; Monographella nivalis, applied alone, rate 0.25 ppm
  inhibition at 0.25 ppm: 0%
[1]; Monographella nivalis, applied alone, rate 0.5 ppm
  inhibition at 0.5 ppm: 0%
[1]; Monographella nivalis, applied alone, rate 1 ppm
  inhibition at 1 ppm: 20%
Septoria tritici; Zymoseptoria tritici, 0.03125 ppm
  inhibition at 0.03125 ppm: 0%
Septoria tritici; Zymoseptoria tritici, 0.0625 ppm
  inhibition at 0.0625 ppm: 70%
Septoria tritici; 0.0625 ppm
  Activity (%): 50%
Botrytis cinerea; Botrytis cinerea, alone, rate 0.015625 ppm
  inhibition at 0.015625 ppm: 0%
Botrytis cinerea; Botrytis cinerea, alone, rate 0.03125 ppm, read-out: Activity (%)
  inhibition at 0.03125 ppm: 0%

## Cn1cc(C(=O)Nc2ccccc2-c2cc(F)c(F)c(F)c2)c(C(F)F)n1 [Fluxapyroxad]
Septoria tritici; 0.015625 ppm
  Activity (%): 0%
Septoria tritici; 0.03125 ppm
  Activity (%): 0%
Septoria tritici; 0.0625 ppm
  Activity (%): 20%
Botrytis cinerea; alone, rate 0.015625 ppm
  Activity (%): 20%
Botrytis cinerea; alone, rate 0.0625 ppm
  Activity (%): 50%
Botrytis cinerea; alone, rate 0.125 ppm
  Activity (%): 70%

## CC(C)C1C2CCC1c1c(NC(=O)c3cn(C)nc3C(F)F)cccc12 (centres unmarked) [Isopyrazam]
Septoria tritici; 0.015625 ppm
  Activity (%): 0%
Septoria tritici; 0.03125 ppm
  Activity (%): 20%

## CP(=O)(O)CCC(N)C(=O)O (centres unmarked) [Glufosinate]
[1]; [2]
  inhibition at 0.3125 ppm: 0%
[1]; [3]
  inhibition at 0.625 ppm: 0%
[1]; Monographella nivalis, applied alone, rate 1.25 ppm
  inhibition at 1.25 ppm: 0%
[1]; [4]
  inhibition at 2.5 ppm: 0%
[1]; Monographella nivalis, single compound, rate 5 ppm
  inhibition at 5 ppm: 0%
Botrytis cinerea; Botrytis cinerea, read-out: Activity (%), alone, rate 2.5 ppm
  inhibition at 2.5 ppm: 0%
Botrytis cinerea; Botrytis cinerea, read-out: Activity (%), alone, rate 5 ppm
  inhibition at 5 ppm: 0%
Botrytis cinerea; Botrytis cinerea, read-out: Activity (%), alone, rate 10 ppm
  inhibition at 10 ppm: 0%
Botrytis cinerea; Botrytis cinerea, read-out: Activity (%), alone, rate 20 ppm
  inhibition at 20 ppm: 0%

## CN1COCN(Cc2cnc(Cl)s2)/C1=N\[N+](=O)[O-] [Thiamethoxam]
[1]; [2]
  inhibition at 0.3125 ppm: 0%
[1]; [3]
  inhibition at 0.625 ppm: 0%
[1]; [4]
  inhibition at 2.5 ppm: 0%
[1]; Monographella nivalis, applied alone, rate 5 ppm
  inhibition at 5 ppm: 0%
Botrytis cinerea; Botrytis cinerea, alone, rate 0.625 ppm
  inhibition at 0.625 ppm: 0%
Botrytis cinerea; Botrytis cinerea, alone, rate 1.25 ppm
  inhibition at 1.25 ppm: 0%
Botrytis cinerea; Botrytis cinerea, alone, rate 2.5 ppm, read-out: Activity (%)
  inhibition at 2.5 ppm: 0%

## [Cu+2].[OH-].[OH-] [Copper hydroxide]
[1]; [5]
  Activity (%): 0%
[1]; applied alone, rate 0.3125 ppm
  Activity (%): 0%
[1]; applied alone, rate 0.625 ppm
  Activity (%): 0%
[1]; applied alone, rate 1.25 ppm
  Activity (%): 0%
[1]; applied alone, rate 2.5 ppm
  Activity (%): 0%
[1]; applied alone, rate 5 ppm
  Activity (%): 0%
Botrytis cinerea; alone, rate 1.25 ppm
  Activity (%): 0%
Botrytis cinerea; alone, rate 2.5 ppm
  Activity (%): 0%
Botrytis cinerea; alone, rate 5 ppm
  Activity (%): 0%

## C#CCOc1ccc(CCNC(=O)C(OCC#C)c2ccc(Cl)cc2)cc1OC (centres unmarked) [Mandipropamid]
[1]; applied alone, rate 0.03125 ppm
  Activity (%): 0%
[1]; applied alone, rate 0.0625 ppm
  Activity (%): 0%
Septoria tritici; 0.5 ppm
  Activity (%): 70%
Botrytis cinerea; alone, rate 5 ppm
  Activity (%): 0%
Botrytis cinerea; alone, rate 10 ppm
  Activity (%): 0%
Botrytis cinerea; alone, rate 20 ppm
  Activity (%): 0%

## COCCOCc1nc(C(F)(F)F)ccc1C(=O)C1=C(O)C2CCC(C2)C1=O (centres unmarked) [Bicyclopyrone]
[1]; applied alone, rate 0.078125 ppm
  Activity (%): 0%
[1]; [5]
  Activity (%): 0%
[1]; applied alone, rate 0.3125 ppm
  Activity (%): 0%
Botrytis cinerea; alone, rate 1.25 ppm
  Activity (%): 0%
Botrytis cinerea; alone, rate 2.5 ppm
  Activity (%): 0%
Botrytis cinerea; alone, rate 5 ppm
  Activity (%): 0%

## O=C(O)COc1ccc(Cl)cc1Cl [2,4-D]
[1]; applied alone, 0.625 ppm
  Activity (%): 0%
[1]; applied alone, 1.25 ppm
  Activity (%): 0%
[1]; applied alone, 2.5 ppm
  Activity (%): 0%
[1]; applied alone, 5 ppm
  Activity (%): 0%
[1]; applied alone, 10 ppm
  Activity (%): 0%
[1]; applied alone, rate 0.3125 ppm
  Activity (%): 0%
[1]; applied alone, rate 0.625 ppm
  Activity (%): 0%
[1]; applied alone, rate 1.25 ppm
  Activity (%): 0%
[1]; applied alone, rate 2.5 ppm
  Activity (%): 0%
Botrytis cinerea; alone, rate 2.5 ppm
  Activity (%): 0%
Botrytis cinerea; alone, rate 5 ppm
  Activity (%): 0%
Botrytis cinerea; alone, rate 10 ppm
  Activity (%): 0%
